Data as given in BindingDB's records for doi:10.1016/j.bmc.2004.09.056 (Pfizer, 2005).

biological target: T1, Renin (Homo sapiens, UniProt P00797); assay: In Vitro Renin IC50 Determinations (Tandem GFP FRET Assay); settings: pH 7.4; 22 °C
T1 sequence (P00797 whole entry): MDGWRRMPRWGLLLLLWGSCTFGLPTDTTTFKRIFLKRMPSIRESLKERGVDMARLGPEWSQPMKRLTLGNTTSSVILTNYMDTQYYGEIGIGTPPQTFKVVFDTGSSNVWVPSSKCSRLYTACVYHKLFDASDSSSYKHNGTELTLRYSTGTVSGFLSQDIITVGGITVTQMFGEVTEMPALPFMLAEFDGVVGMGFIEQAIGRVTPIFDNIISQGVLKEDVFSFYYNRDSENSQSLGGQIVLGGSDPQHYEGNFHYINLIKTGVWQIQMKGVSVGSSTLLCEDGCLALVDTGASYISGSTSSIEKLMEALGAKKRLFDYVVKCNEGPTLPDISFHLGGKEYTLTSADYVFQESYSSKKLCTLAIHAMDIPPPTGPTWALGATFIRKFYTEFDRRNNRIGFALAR
From the text: The renin assay utilized a tandem Green Flourescent Protein (tGFP) substrate that was hydrolyzed by human rennin. The tGFP substrate contained a nine amino acid (Ile-His-Pro-Phe-His-Leu-Val-Ile-His) recognition sequence for human renin flanked by two GPF proteins (W1B and Topaz). Human rennin cleaves the leucine-valine site of the substrate linker. Once cleaved, the emission ratio changes. The change was monitored by the ratio of 530 nm (topaz) over 475 nm (W1B) with the excitation set at 432 nm and the cutoff at 515 nm. The assay used a 384 well plate format that was read using a Gemini XS Fluorometric plate reader (Molecular Devices). Compounds were screened at a starting concentration of 10 uM and used a fourfold eleven-point dilution regiment.

IC50	Compound
> 10000 nM	COc1ccccc1COCCCOc1ccc([C@H]2CCNC[C@H]2NC(=O)c2ccc3ccccc3c2)cc1 (mixture of isomers) [mixture of cis isomers]
> 10000 nM	COc1ccccc1COCCCOc1ccc([C@H]2CCNC[C@H]2NCc2ccc(-c3ccccc3)cc2)cc1 (mixture of isomers) [mixture of cis isomers]
61 nM	COc1ccccc1COCCCOc1ccc([C@H]2CCNC[C@H]2NCc2ccc3ccccc3c2)cc1 [(3S,4R)-4-(4-{3-[(2-methoxyphenyl)methoxy]propoxy}phenyl)-N-(naphthalen-2-ylmethyl)piperidin-3-amine]

More lines, now with the values behind:

Compound	IC50
COc1ccccc1COCCCOc1ccc([C@H]2CCNC[C@H]2NCc2ccc3[nH]ccc3c2)cc1 (mixture of isomers) [(3S,4R)-N-(1H-indol-5-ylmethyl)-4-(4-{3-[(2-methoxyphenyl)methoxy]propoxy}phenyl)piperidin-3-amine]	2280 nM
COc1ccc2cc(CN[C@@H]3CNCC[C@@H]3c3ccc(OCCCOCc4ccccc4OC)cc3)ccc2c1 (mixture of isomers) [(3S,4R)-N-[(6-methoxynaphthalen-2-yl)methyl]-4-(4-{3-[(2-methoxyphenyl)methoxy]propoxy}phenyl)piperidin-3-amine]	73 nM
COc1ccccc1COCCCOc1ccc([C@H]2CCNC[C@H]2NCc2ccc3cccnc3c2)cc1 (mixture of isomers) [mixture of cis isomers]	175 nM
COc1ccccc1COCCCOc1ccc([C@H]2CCNC[C@H]2NCc2ccc3occc3c2)cc1 (mixture of isomers) [mixture of cis isomers]	393 nM
COc1ccccc1COCCCOc1ccc([C@H]2CCNC[C@H]2NCc2ccc3c(c2)NCCC3)cc1 [mixture of cis isomers]	255 nM
